A short description of series [1]: Release of indirubin into fasted-state simulated intestinal fluid (FaSSIF), HPLC. It counts as physicochemical. As to conditions: for Amount of indirubin in % Q (measured amount in solution divided by theoretical maximum) / Amount of indirubin in solution: FaSSIF pH 6.5, 37° C., 2 mg total indirubin in 500 mL; for Amount of indirubin in solution: mean of six replicates. The procedure:
Additional solid amorphous dispersions of synthetic indirubin in six different hydrophilic carrier polymers-povidone, PVAc-PVCap-PEG, (SOLUPLUS®), copovidone, HPMC-AS, HPMCP and polyvinyl acetate phthalate (PVAP)—were prepared for a further study, as described in Example 15. In this study, dispersions with indirubin to polymer ratios of 1:9 or 0.5:9.5 were prepared, and the release of indirubin into fasted-state simulated intestinal fluid was determined. For comparison, Indigo naturalis and crystalline synthetic indirubin were also tested. The amount of indirubin in fasted-state simulated intestinal fluid was determined by HPLC for samples of the fluid taken. The mean amount of indirubin in solution at each time point was determined, and is shown in Table 1 in units of μg/L and in Table 2 as a percentage, referred to a % Q, of measured amount (mass) of indirubin in solution divided by the theoretical maximum amount (mass) of indirubin in solution.
Solid amorphous dispersions of synthetic indirubin in six different hydrophilic carrier polymers-povidone, PVAc-PVCap-PEG, (SOLUPLUS®), copovidone, HPMC-AS, HPMCP and polyvinyl acetate phthalate (PVAP) with indirubin to polymer ratios of 1:9 or 0.5 to 9.5 were prepared as described in Example 13. For comparison, Indigo naturalis and crystalline synthetic indirubin were also tested. All test articles were normalized to a total indirubin of 2 mg and added to 500 mL of fasted-state simulated intestinal fluid (FaSSIF) medium consisting of 3 mM taurocholate, 0.75 mM phospholipids, 148 mM sodium, 106 mM chloride, and 29 mM phosphate at pH 6.5. Six replicates of each test article were assessed under the following testing conditions: mixing with USP #2 paddles at 100 RPM at 37° C. with sampling of 5 mL at each time point and filtration through a 10 μm filter. […] The mean amount of indirubin in solution at each time point was determined, and is shown in Table 1 in units of μg/L and in Table 2 as a percentage, referred to a % Q, of measured amount (mass) of indirubin in solution divided by the theoretical maximum amount (mass) of indirubin in solution.

Series [2] addresses human AhR (Homo sapiens, UniProt P35869). The settings on record: 24 hours incubation, reporter cells from human Huh7 cells expressing human AhR and ARNT.
Experimental: Each was incubated for 24 hours with reporter cells made from human Huh7 cells expressing human AhR and ARNT with luciferase expressed behind a genetic response element that responds to dimerized AhR/ARNT.
After incubation, the medium was aspirated and a detection reagent was added followed by a measurement of the relative luminescent units compared to a negative control of DMSO.
For series [3], the target named is T1, aryl hydrocarbon receptor (Homo sapiens, UniProt P35869).
T1 sequence (P35869 11-848): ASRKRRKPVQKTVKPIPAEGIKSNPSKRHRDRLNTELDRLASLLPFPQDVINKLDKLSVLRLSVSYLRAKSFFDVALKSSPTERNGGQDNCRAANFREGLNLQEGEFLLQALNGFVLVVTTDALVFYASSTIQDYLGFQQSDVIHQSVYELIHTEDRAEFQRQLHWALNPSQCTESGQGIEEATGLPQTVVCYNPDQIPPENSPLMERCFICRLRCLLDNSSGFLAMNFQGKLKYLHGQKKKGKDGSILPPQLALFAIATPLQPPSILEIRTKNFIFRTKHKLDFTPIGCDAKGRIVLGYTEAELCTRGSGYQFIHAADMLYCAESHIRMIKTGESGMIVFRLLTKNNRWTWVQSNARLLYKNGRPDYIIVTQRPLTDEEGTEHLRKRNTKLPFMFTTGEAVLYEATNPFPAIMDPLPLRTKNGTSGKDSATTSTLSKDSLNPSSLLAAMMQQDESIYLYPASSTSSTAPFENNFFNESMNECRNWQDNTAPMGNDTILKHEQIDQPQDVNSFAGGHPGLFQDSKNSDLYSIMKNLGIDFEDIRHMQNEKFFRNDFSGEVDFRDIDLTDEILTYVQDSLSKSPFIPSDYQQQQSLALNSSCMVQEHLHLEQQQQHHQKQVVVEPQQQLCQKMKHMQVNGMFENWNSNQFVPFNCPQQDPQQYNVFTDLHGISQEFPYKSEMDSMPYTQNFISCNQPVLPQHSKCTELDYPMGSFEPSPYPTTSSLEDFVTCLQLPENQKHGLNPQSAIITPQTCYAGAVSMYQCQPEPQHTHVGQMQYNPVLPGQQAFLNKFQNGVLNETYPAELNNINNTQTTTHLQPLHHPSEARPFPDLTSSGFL
As to conditions: background statement, "It is known", cited from earlier work.

Each structure is given as a SMILES string. Where two headings read alike, the source gives them in different places.

Sequence of human AhR (P27540 whole entry partner, one chain of several): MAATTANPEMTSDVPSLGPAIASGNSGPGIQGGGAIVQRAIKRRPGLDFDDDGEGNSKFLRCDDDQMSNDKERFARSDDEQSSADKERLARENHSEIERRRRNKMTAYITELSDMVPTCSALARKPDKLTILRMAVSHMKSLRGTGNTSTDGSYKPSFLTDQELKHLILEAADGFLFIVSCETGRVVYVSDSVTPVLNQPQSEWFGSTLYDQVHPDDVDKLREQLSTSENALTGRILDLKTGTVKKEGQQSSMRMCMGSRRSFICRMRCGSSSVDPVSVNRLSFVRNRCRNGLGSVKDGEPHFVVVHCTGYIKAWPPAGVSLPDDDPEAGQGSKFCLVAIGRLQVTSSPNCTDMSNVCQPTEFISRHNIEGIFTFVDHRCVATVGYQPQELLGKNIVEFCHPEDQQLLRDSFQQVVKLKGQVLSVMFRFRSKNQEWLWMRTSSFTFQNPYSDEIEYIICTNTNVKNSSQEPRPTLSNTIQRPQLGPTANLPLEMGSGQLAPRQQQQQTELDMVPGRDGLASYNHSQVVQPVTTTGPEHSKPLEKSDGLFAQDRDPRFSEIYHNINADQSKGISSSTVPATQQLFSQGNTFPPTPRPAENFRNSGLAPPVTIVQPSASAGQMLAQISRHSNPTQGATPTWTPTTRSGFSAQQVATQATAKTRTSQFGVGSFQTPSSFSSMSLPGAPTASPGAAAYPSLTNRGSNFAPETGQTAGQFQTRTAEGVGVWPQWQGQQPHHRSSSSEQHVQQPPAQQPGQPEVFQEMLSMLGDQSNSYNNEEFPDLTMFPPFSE

Regarding `O=C1Nc2ccccc2/C1=C1/Nc2ccccc2C1=O` [Synthetic Indirubin, indirubin], the “Amount of indirubin in % Q (measured amount in solution divided by theoretical maximum)” value in series [1] (5 min) was 0.02 % Q; in series [1] (10 min), 0.03 % Q; in series [1] (20 min) it was 0.03 % Q; in series [1] (30 min) it was 0.03 % Q; in series [1] (60 min), 0.04 % Q; in series [1] (90 min), 0.05 % Q. The “Amount of indirubin in % Q (measured amount in solution divided by theoretical maximum)” value in series [1] (120 min) is given as 0.07 % Q. Further, the “Amount of indirubin in solution” value was 0.02 µg/L in series [1] (5 min); 0.03 µg/L in series [1] (10 min); 0.03 µg/L in series [1] (20 min); 0.03 µg/L in series [1] (30 min); 0.04 µg/L in series [1] (60 min); 0.05 µg/L in series [1] (90 min). Further, the “Amount of indirubin in solution” value in series [1] (120 min) is 0.07 µg/L. Further, in series [1] (FaSSIF, summary of Tables 1 and 2), the “Release of indirubin, of the total amount of indirubin” value is recorded as “Less than 0.1%”. Moreover, in series [2], the “Activation of the AhR receptor (fold activation relative to DMSO, FIG. 4)” value is reported as “potent activator”. Further, the “Agonism of the aryl hydrocarbon receptor” value in series [3] is “potent agonists”.

As to `O=C1/C(=C2\Nc3ccccc3C2=O)Nc2ccccc21` [indigo], the figures for the “Agonism of the aryl hydrocarbon receptor” value in series [3] and in series [3] (listed as Indigo) were “potent agonists” and “less potent than indirubin”, respectively.

The values are drawn from patent publication US20200345645A1, “COMPOSITIONS COMPRISING INDIGO AND/OR AN INDIGO DERIVATIVE AND METHODS OF USE THEREOF” (Azora Therapeutics, Inc., priority 2019, published 2020).
